This passage reports Km results from patent US5451520A, “Creatine amidinohydrolase from alkaligenes sp. ks-85 ferm bp-4487” (Kikkoman Corporation, priority 1993, dated 1995).

For test [1], the system named is creatine amidinohydrolase from Alkaligenes sp. KS-85 (FERM BP-4487), the present enzyme. Briefly: Km determination by Lineweaver-Burk plot, creatine substrate. The format is biochemical. The settings on record: pH 7.7, 37° C. On the procedure: The enzyme activity forming […] yellow pigment in 1 minute under the following conditions is referred to as 1 U of the present enzyme.
6.63 g of creatine is dissolved in 500 ml of 50 mM buffer, pH 7.7.
1) 0.9 ml of the solution 1 is pre-incubated at 37° C. for 5 min.
2) 0.1 ml of an enzyme solution (adjusted in the range of approx. 1-2 U/ml) is mixed therewith and allowed to react at 37° C. for 10 min.
3) After 10 min. reaction, 2 ml of the solution 2 is mixed therewith.
4) After being mixed with the solution 2, the mixture is allowed to stand at 25° C. for 20 min., and the absorbance at 435 nm is determined (the OD sample).

Test [2] concerns the target T1, conventional creatine amidinohydrolase (CRH-211, a product of Toyobo Co., Ltd.) (Pseudomonas putida, UniProt P38488).
T1 construct: purchased Toyobo Co., Ltd. CRH-211
T1 sequence (P38488 1-403): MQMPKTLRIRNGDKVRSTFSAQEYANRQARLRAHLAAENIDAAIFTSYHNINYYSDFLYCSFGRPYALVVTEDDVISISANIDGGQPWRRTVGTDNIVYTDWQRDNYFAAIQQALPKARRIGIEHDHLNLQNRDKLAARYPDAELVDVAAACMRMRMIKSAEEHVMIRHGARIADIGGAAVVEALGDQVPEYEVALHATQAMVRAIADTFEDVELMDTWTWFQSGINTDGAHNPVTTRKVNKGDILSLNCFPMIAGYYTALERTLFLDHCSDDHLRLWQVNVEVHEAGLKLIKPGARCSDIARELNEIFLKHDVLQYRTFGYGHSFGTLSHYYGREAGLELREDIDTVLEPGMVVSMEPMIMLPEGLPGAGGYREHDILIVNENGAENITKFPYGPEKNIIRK
As to conditions: conventional enzyme; substrate creatine; cited from earlier work.

Consider `CN(CC(=O)O)C(=N)N` [creatine], for which the results for the Km in test [1] and in test [2] were 13 mM and 24 mM, respectively.
